Laboratory results reported in paper PMC5418947 (The Open Medicinal Chemistry Journal, 2017).
Read-outs that look alike come from different tables or passages of the source.

Experiments:
[1] = DPPH free radical scavenging; type: physicochemical; conditions: read-out: DPPH IC50; 0.1 mM DPPH in methanol, 30 min, room temperature, 517 nm
[2] = biological target: eqBuChE (from equine serum) (Equus caballus, UniProt P81908); assay: biochemical; type: biochemical
[3] = biological target: TcAChE (from electric eel) (Electrophorus electricus, UniProt O42275); assay: Cholinesterase assay; type: biochemical
Sequence of TcAChE (from electric eel) (O42275 24-633): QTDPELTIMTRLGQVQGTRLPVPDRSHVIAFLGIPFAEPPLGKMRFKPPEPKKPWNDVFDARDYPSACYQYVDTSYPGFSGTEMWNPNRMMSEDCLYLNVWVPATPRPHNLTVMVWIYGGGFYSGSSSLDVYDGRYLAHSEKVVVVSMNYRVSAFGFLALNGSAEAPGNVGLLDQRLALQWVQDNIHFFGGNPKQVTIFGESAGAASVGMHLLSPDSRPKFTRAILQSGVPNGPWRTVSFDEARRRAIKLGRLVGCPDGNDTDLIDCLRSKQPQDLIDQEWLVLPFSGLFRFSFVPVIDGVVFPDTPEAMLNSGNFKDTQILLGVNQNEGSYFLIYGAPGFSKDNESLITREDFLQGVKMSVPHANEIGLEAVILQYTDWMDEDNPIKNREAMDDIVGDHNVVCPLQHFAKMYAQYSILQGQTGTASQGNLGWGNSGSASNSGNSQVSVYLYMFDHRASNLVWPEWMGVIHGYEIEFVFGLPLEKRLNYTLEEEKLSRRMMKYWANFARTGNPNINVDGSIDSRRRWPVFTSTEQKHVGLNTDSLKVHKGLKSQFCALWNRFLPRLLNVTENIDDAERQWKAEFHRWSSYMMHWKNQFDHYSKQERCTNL

Sequence of eqBuChE (from equine serum) (P81908 whole entry): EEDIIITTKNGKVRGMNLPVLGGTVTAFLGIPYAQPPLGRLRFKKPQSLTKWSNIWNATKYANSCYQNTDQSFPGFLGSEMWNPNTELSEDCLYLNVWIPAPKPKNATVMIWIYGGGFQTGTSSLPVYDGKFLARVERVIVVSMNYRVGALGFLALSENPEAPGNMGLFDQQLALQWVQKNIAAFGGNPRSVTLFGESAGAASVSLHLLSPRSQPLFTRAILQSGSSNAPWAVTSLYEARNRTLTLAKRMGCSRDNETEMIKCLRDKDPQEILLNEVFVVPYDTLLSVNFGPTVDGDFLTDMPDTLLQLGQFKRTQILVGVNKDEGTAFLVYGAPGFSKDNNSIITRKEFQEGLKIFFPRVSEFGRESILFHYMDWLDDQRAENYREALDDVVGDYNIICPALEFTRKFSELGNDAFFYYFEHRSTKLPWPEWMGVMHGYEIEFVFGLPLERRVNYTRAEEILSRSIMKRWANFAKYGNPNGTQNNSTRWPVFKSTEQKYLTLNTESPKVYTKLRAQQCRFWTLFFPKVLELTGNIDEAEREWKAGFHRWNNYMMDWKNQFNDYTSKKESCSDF

| Structure (SMILES) | IC50 [1] [nM] | BuChE selectivity index (SI) = IC50(TcAChE)/IC50(eqBuChE) [2] | IC50 [2] [nM] | IC50 [3] [nM] | BuChE selectivity index (SI) = IC50(TcAChE)/IC50(eqBuChE) ([2]; ratio of IC50 values) | BuChE inhibitor activity, fold higher than tacrine [2] | BuChE inhibitor activity, fold higher than tacrine ([2]; relative to tacrine) | AChE inhibitory activity (in words) ([3]; Ellman's method) |
| --- | --- | --- | --- | --- | --- | --- | --- | --- |
| Cc1c(C)c2c(c(C)c1O)CCC(C)(C(=O)NCCNc1c3c(nc4ccccc14)CCCC3)O2 (stereo not drawn) [Compound 8a, 6-Hydroxy-2,5,7,8-tetramethyl-N-{2-[(1,2,3,4-tetrahydroacridin-9-yl)amino]ethyl}-3,4-dihydro-2H-1-benzopyran-2-carboxamide] | 46200 | 11.87 | 129 | 1530 |  |  |  |  |
| Cc1c(C)c2c(c(C)c1O)CCC(C)(C(=O)NCCCNc1c3c(nc4ccccc14)CCCC3)O2 (stereo not drawn) [Compound 8b, 6-Hydroxy-2,5,7,8-tetramethyl-N-{3-[(1,2,3,4-tetrahydroacridin-9-yl)amino]propyl}-3,4-dihydro-2H-1-benzopyran-2-carboxamide] | 11500 |  | 12.6 | 1530 | 121.62 |  |  |  |
| Cc1c(C)c2c(c(C)c1O)CCC(C)(C(=O)NCCCCNc1c3c(nc4ccccc14)CCCC3)O2 (stereo not drawn) [Compound 8c, 6-Hydroxy-2,5,7,8-tetramethyl-N-{4-[(1,2,3,4-tetrahydroacridin-9-yl)amino]butyl}-3,4-dihydro-2H-1-benzopyran-2-carboxamide] | 14400 | 196.07 | 11.2 | 2200 |  |  |  |  |
| Cc1c(C)c2c(c(C)c1O)CCC(C)(C(=O)NCCCCCCNc1c3c(nc4ccccc14)CCCC3)O2 (stereo not drawn) [Compound 8d, 6-Hydroxy-2,5,7,8-tetramethyl-N-{6-[(1,2,3,4-tetrahydroacridin-9-yl)amino]hexyl}-3,4-dihydro-2H-1-benzopyran-2-carboxamide] | 12700 | 10.40 | 4.74 | 49.3 |  | more than 3 fold |  |  |
| c1ccc2c(NCCCCCCCN3CCc4c([nH]c5ccccc45)C3)c3c(nc2c1)CCCC3 [Compound 14, N-(7-(3,4-dihydro-1H-pyrido[3,4-b]indol-2(9H)-yl)heptyl)-1,2,3,4-tetrahydroacridin-9-amine] | 129000 |  | 3.16 |  | 5.49 |  | more than 3 fold |  |
| c1ccc2c3c([nH]c2c1)CN(CCN1CCc2c([nH]c4ccccc24)C1)CC3 [Compound 16, 1,2-Bis(3,4-dihydro-1H-pyrido[3,4-b]indol-2(9H)-yl)ethane] | 126000 |  | 1700 | > 100000 | >58.88 |  |  | no inhibitory activity |
| Cc1c(C)c2c(c(C)c1O)CCC(C)(C(=O)O)O2 (stereo not drawn) [Trolox, reference compound] | 17600 |  |  |  |  |  |  |  |
